Reference: patent US12049450B2, “Pyridyloxy-carboxylate derivative and preparation method therefor, herbicidal composition, and use” (Qingdao Kingagroot Chemical Compound Co., Ltd., priority 2018, dated 2024)

Legend:
Assay in all cases: Post-emergence test experiment (greenhouse pot, spray at 2-3 leaf stage)
Assay type in all cases: in vivo
Conditions in all cases: 1000 g/ha; post-emergence spray at 2-3 leaf stage; assessed after 3 weeks; fresh weight inhibition rate
Abutilon theophrasti = test system: Abutilon theophrasti
In short: (§1)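 Weed seeds sown in soil-filled pots in greenhouse, sprayed at 2-3 leaf stage (2 weeks after sowing) with compound in acetone/tween-80 plus methyl oleate emulsible concentrate (1.5 L/ha) diluted in water. Fresh-weight growth inhibition scored after 3 weeks on 0-5 scale (5: >85%, 0: <5%).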

Digitaria sanguinalis = test system: Digitaria sanguinalis
In short: as §1

Echinochloa crusgalli = test system: Echinochloa crusgalli
In short: as §1

Galium spurium = test system: Galium spurium
In short: as §1

Monochoria vaginalis = test system: Monochoria vaginalis
In short: as §1

SMILES | Activity level (growth inhibition rate) Abutilon theophrasti (Abutilon theophrasti) | Activity level (growth inhibition rate) Digitaria sanguinalis (Digitaria sanguinalis) | Activity level (growth inhibition rate) Echinochloa crusgalli (Echinochloa crusgalli) | Activity level (growth inhibition rate) Galium spurium (Galium spurium) | Activity level (growth inhibition rate) Monochoria Vaginalis (Monochoria vaginalis)
Cc1nc(OC(C)C(=O)OCc2ccccc2)c(C)c(N)c1C (stereo not shown) [Compound 19] | 5 (Level 5: the growth inhibition rate is greater than 85%) | 5 (Level 5: the growth inhibition rate is greater than 85%) | 5 (Level 5: the growth inhibition rate is greater than 85%) | 5 (Level 5: the growth inhibition rate is greater than 85%) | 5 (Level 5: the growth inhibition rate is greater than 85%)
CC(Oc1nc(F)c(Cl)c(N)c1Cl)C(=O)SCc1ccc2cc(Cl)ccc2c1 (stereo not shown) [Compound 182] | 5 (Level 5: the growth inhibition rate is greater than 85%) | 5 (Level 5: the growth inhibition rate is greater than 85%) | 5 (Level 5: the growth inhibition rate is greater than 85%) | 5 (Level 5: the growth inhibition rate is greater than 85%) | 5 (Level 5: the growth inhibition rate is greater than 85%)
Cc1cccc(COC(=O)C(C)Oc2nc(F)c(Cl)c(N)c2Cl)c1 (stereo not shown) [Compound 196] | 5 (Level 5: the growth inhibition rate is greater than 85%) | 5 (Level 5: the growth inhibition rate is greater than 85%) | 5 (Level 5: the growth inhibition rate is greater than 85%) | 5 (Level 5: the growth inhibition rate is greater than 85%) | 5 (Level 5: the growth inhibition rate is greater than 85%)
Cc1ccccc1COC(=O)C(C)Oc1nc(F)c(Cl)c(N)c1Cl (stereo not shown) [Compound 69] | 5 (Level 5: the growth inhibition rate is greater than 85%) | 5 (Level 5: the growth inhibition rate is greater than 85%) | 5 (Level 5: the growth inhibition rate is greater than 85%) | 5 (Level 5: the growth inhibition rate is greater than 85%) | 5 (Level 5: the growth inhibition rate is greater than 85%)
CC(Oc1nc(F)c(Cl)c(N)c1Cl)C(=O)OCc1cccc(Cl)c1 (stereo not shown) [Compound 203] | 5 (Level 5: the growth inhibition rate is greater than 85%) | 5 (Level 5: the growth inhibition rate is greater than 85%) | 5 (Level 5: the growth inhibition rate is greater than 85%) | 5 (Level 5: the growth inhibition rate is greater than 85%) | 5 (Level 5: the growth inhibition rate is greater than 85%)
CC(Oc1nc(F)c(Cl)c(NCc2ccc(C(F)(F)F)o2)c1Cl)C(=O)SCc1ccccc1 (stereo not shown) [Compound 239] | 5 (Level 5: the growth inhibition rate is greater than 85%) | 5 (Level 5: the growth inhibition rate is greater than 85%) | 5 (Level 5: the growth inhibition rate is greater than 85%) | 5 (Level 5: the growth inhibition rate is greater than 85%) | 5 (Level 5: the growth inhibition rate is greater than 85%)
CC(Oc1nc(F)c(Cl)c(N)c1Cl)C(=O)OCC1C=C2C=CC=CC2N1 (stereo not shown) [Compound 169] | 5 (Level 5: the growth inhibition rate is greater than 85%) | 5 (Level 5: the growth inhibition rate is greater than 85%) | 5 (Level 5: the growth inhibition rate is greater than 85%) | 5 (Level 5: the growth inhibition rate is greater than 85%) | 5 (Level 5: the growth inhibition rate is greater than 85%)
CC(Oc1nc(C(F)(F)F)c(Cl)c(N)c1Cl)C(=O)SCc1ccccc1 (stereo not shown) [Compound 6] | 5 (Level 5: the growth inhibition rate is greater than 85%) | 5 (Level 5: the growth inhibition rate is greater than 85%) | 5 (Level 5: the growth inhibition rate is greater than 85%) | 5 (Level 5: the growth inhibition rate is greater than 85%) | 5 (Level 5: the growth inhibition rate is greater than 85%)
CC(Oc1nc(F)c(Cl)c(N)c1Cl)C(=O)OCc1ccc(C2CC2)cc1 (stereo not shown) [Compound 74] | 5 (Level 5: the growth inhibition rate is greater than 85%) | 5 (Level 5: the growth inhibition rate is greater than 85%) | 5 (Level 5: the growth inhibition rate is greater than 85%) | 5 (Level 5: the growth inhibition rate is greater than 85%) | 5 (Level 5: the growth inhibition rate is greater than 85%)
Cc1ccc(COC(=O)C(C)Oc2nc(F)c(Cl)c(N)c2Cl)cc1 (stereo not shown) [Compound 197] | 5 (Level 5: the growth inhibition rate is greater than 85%) | 5 (Level 5: the growth inhibition rate is greater than 85%) | 5 (Level 5: the growth inhibition rate is greater than 85%) | 5 (Level 5: the growth inhibition rate is greater than 85%) | 5 (Level 5: the growth inhibition rate is greater than 85%)
CCCc1c(F)nc(OC(C)C(=O)SCc2ccccc2)c(C2CC2)c1N (stereo not shown) [Compound 14] | 5 (Level 5: the growth inhibition rate is greater than 85%) | 5 (Level 5: the growth inhibition rate is greater than 85%) | 5 (Level 5: the growth inhibition rate is greater than 85%) | 5 (Level 5: the growth inhibition rate is greater than 85%) | 5 (Level 5: the growth inhibition rate is greater than 85%)
Cc1nc(OC(C)C(=O)OCc2ccccc2)c(Cl)c(N)c1Cl (stereo not shown) [Compound 5] | 5 (Level 5: the growth inhibition rate is greater than 85%) | 5 (Level 5: the growth inhibition rate is greater than 85%) | 5 (Level 5: the growth inhibition rate is greater than 85%) | 5 (Level 5: the growth inhibition rate is greater than 85%) | 5 (Level 5: the growth inhibition rate is greater than 85%)
CC(Oc1nc(F)c(Cl)c(N)c1Cl)C(=O)OCc1nncs1 (stereo not shown) [Compound 164] | 5 (Level 5: the growth inhibition rate is greater than 85%) | 5 (Level 5: the growth inhibition rate is greater than 85%) | 5 (Level 5: the growth inhibition rate is greater than 85%) | 5 (Level 5: the growth inhibition rate is greater than 85%) | 5 (Level 5: the growth inhibition rate is greater than 85%)
CC(Oc1nc(F)c(Cl)c(N)c1Cl)C(=O)SC(C)c1ncon1 (stereo not shown) [Compound 150] | 5 (Level 5: the growth inhibition rate is greater than 85%) | 5 (Level 5: the growth inhibition rate is greater than 85%) | 5 (Level 5: the growth inhibition rate is greater than 85%) | 5 (Level 5: the growth inhibition rate is greater than 85%) | 5 (Level 5: the growth inhibition rate is greater than 85%)
CC(Oc1nc(F)c(Cl)c(N)c1Cl)C(=O)SCc1ccncc1 (stereo not shown) [Compound 236] | 5 (Level 5: the growth inhibition rate is greater than 85%) | 5 (Level 5: the growth inhibition rate is greater than 85%) | 5 (Level 5: the growth inhibition rate is greater than 85%) | 5 (Level 5: the growth inhibition rate is greater than 85%) | 5 (Level 5: the growth inhibition rate is greater than 85%)
CC(Oc1nc(F)c(Cl)c(N)c1Cl)C(=O)OCc1ccno1 (stereo not shown) [Compound 144] | 5 (Level 5: the growth inhibition rate is greater than 85%) | 5 (Level 5: the growth inhibition rate is greater than 85%) | 5 (Level 5: the growth inhibition rate is greater than 85%) | 5 (Level 5: the growth inhibition rate is greater than 85%) | 5 (Level 5: the growth inhibition rate is greater than 85%)
CC(Oc1nc(F)c(Cl)c(N)c1Cl)C(=O)OCc1cccc(N)c1 (stereo not shown) [Compound 90] | 5 (Level 5: the growth inhibition rate is greater than 85%) | 5 (Level 5: the growth inhibition rate is greater than 85%) | 5 (Level 5: the growth inhibition rate is greater than 85%) | 5 (Level 5: the growth inhibition rate is greater than 85%) | 5 (Level 5: the growth inhibition rate is greater than 85%)
